Data reported in ChEMBL document CHEMBL5360532, “Current scenario of quinolone hybrids with potential antibacterial activity against ESKAPE pathogens” (Eur J Med Chem, 2023).
In brackets after ≈: the same amount, converted by molar mass.

Legend:
[1] = test system: Mycobacterium tuberculosis; experiment: Antimycobacterial activity against extensive drug Mycobacterium tuberculosis assessed as bacterial growth inhibition by LJ slant assay; assay type: functional
[2] = test system: Staphylococcus aureus; experiment: Antibacterial activity against Staphylococcus aureus ATCC 25923 assessed as bacterial growth inhibition measured after 16 hrs by broth microdilution assay; assay type: functional
[3] = test system: Acinetobacter baumannii; experiment: Antibacterial activity against Acinetobacter baumannii assessed as bacterial growth inhibition by broth microdilution assay; assay type: functional
[4] = test system: Klebsiella pneumoniae; experiment: Antibacterial activity against Klebsiella pneumoniae assessed as bacterial growth inhibition by agar cup diffusion assay; assay type: functional
[5] = test system: Staphylococcus aureus; experiment: Antibacterial activity against Staphylococcus aureus assessed as bacterial growth inhibition by agar cup diffusion assay; assay type: functional
[6] = test system: Streptococcus pneumoniae; experiment: Antibacterial activity against Streptococcus pneumoniae assessed as zone of inhibition at 50 mg/ml by agar well diffusion assay; assay type: functional; conditions: read-out: IZ
[7] = test system: Escherichia coli; experiment: Antibacterial activity against Escherichia coli assessed as bacterial growth inhibition by broth microdilution assay; assay type: functional
[8] = test system: Escherichia coli; experiment: Antibacterial activity against Escherichia coli ATCC 25922 assessed as zone of inhibition at 50 mg/ml by agar diffusion assay; assay type: functional; conditions: read-out: IZ
[9] = test system: Mycobacterium tuberculosis; experiment: Antimycobacterial activity against Mycobacterium tuberculosis H37Rv assessed as bacterial growth inhibition by LJ slant assay; assay type: functional
[10] = test system: Staphylococcus aureus; experiment: Antibacterial activity against Staphylococcus aureus MLS16 MTCC 2940 assessed as bacterial growth inhibition measured after 24 hrs by microdilution assay; assay type: functional
[11] = test system: Enterococcus faecalis; experiment: Antibacterial activity against Enterococcus faecalis assessed as bacterial growth inhibition by broth microdilution assay; assay type: functional
[12] = test system: Staphylococcus aureus; experiment: Antibacterial activity against Staphylococcus aureus assessed as zone of inhibition at 250 ug/ml by agar well diffusion assay; assay type: functional; conditions: read-out: IZ
[13] = test system: Staphylococcus aureus; experiment: Antibacterial activity against Staphylococcus aureus assessed as zone of inhibition at 50 mg/ml cup plate assay; assay type: functional; conditions: read-out: IZ
[14] = test system: Staphylococcus aureus; experiment: Antibacterial activity Staphylococcus aureus ATCC 25923 assessed as bacterial growth inhibition by broth microdilution assay; assay type: functional
[15] = test system: Staphylococcus aureus; experiment: Antibacterial activity against Staphylococcus aureus assessed as bacterial growth inhibition measured after 24 hrs by agar cup diffusion assay; assay type: functional
[16] = test system: Escherichia coli; experiment: Antibacterial activity against Escherichia coli assessed as zone of inhibition at 50 mg/ml cup plate assay; assay type: functional; conditions: read-out: IZ
[17] = test system: Staphylococcus aureus; experiment: Antibacterial activity against Staphylococcus aureus assessed as bacterial growth inhibition by agar well diffusion assay; assay type: functional, organism-based
[18] = test system: Mycobacterium tuberculosis; experiment: Antimycobacterial activity against Mycobacterium tuberculosis H37Rv assessed as bacterial growth inhibition; assay type: functional
[19] = test system: Pseudomonas aeruginosa; experiment: Antibacterial activity against Pseudomonas aeruginosa ATCC43288 assessed as bacterial growth inhibition measured after 18 to 24 hrs inhibition by broth microdilution assay; assay type: functional; conditions: time 18-24 hrs
[20] = test system: Escherichia coli; experiment: Antibacterial activity against Escherichia coli assessed as bacterial growth inhibition by serial dilution method; assay type: functional
[21] = test system: Escherichia coli; experiment: Antibacterial activity against Escherichia coli assessed as bacterial growth inhibition measured after 20 hrs by serial dilution method; assay type: functional
[22] = test system: Escherichia coli; experiment: Antibacterial activity against Escherichia coli assessed as zone of inhibition at 50 mg/ml by agar well diffusion assay; assay type: functional; conditions: read-out: IZ
[23] = test system: Staphylococcus aureus; experiment: Antibacterial activity against methicillin resistant Staphylococcus aureus assessed as bacterial growth inhibition by microdilution assay; assay type: functional
[24] = test system: Escherichia coli; experiment: Antibacterial activity against Escherichia coli MTCC 1687 assessed as bacterial growth inhibition measured after 24 hrs by microdilution assay; assay type: functional
[25] = test system: Staphylococcus aureus; experiment: Antibacterial activity against Staphylococcus aureus assessed as zone of inhibition at 50 mg/ml by agar well diffusion assay; assay type: functional; conditions: read-out: IZ
[26] = test system: Pseudomonas aeruginosa; experiment: Antibacterial activity against Pseudomonas aeruginosa assessed as bacterial growth inhibition by agar well diffusion assay; assay type: functional, organism-based
[27] = test system: Acinetobacter baumannii; experiment: Antibacterial activity against Acinetobacter baumannii assessed as bacterial growth inhibition by serial dilution method; assay type: functional
[28] = test system: Pseudomonas aeruginosa; experiment: Antibacterial activity against Pseudomonas aeruginosa assessed as bacterial growth inhibition by agar cup diffusion assay; assay type: functional
[29] = test system: Enterococcus faecalis; experiment: Antibacterial activity against Enterococcus faecalis assessed as zone of inhibition at 50 mg/ml by agar well diffusion assay; assay type: functional; conditions: read-out: IZ
[30] = test system: Klebsiella pneumoniae; experiment: Antibacterial activity against Klebsiella pneumoniae assessed as bacterial growth inhibition by serial dilution method; assay type: functional
[31] = test system: Escherichia coli; experiment: Antibacterial activity against fluoroquinolone Escherichia coli assessed as bacterial growth inhibition by broth microdilution assay; assay type: functional
[32] = test system: Escherichia coli; experiment: Antibacterial activity against Escherichia coli ATCC35218 assessed as bacterial growth inhibition measured after 18 to 24 hrs inhibition by broth microdilution assay; assay type: functional; conditions: time 18-24 hrs
[33] = test system: Klebsiella pneumoniae; experiment: Antibacterial activity against Klebsiella pneumoniae assessed as bacterial growth inhibition measured after 20 hrs by serial dilution method; assay type: functional
[34] = test system: Pseudomonas aeruginosa; experiment: Antibacterial activity against Pseudomonas aeruginosa assessed as zone of inhibition at 250 ug/ml by agar well diffusion assay; assay type: functional; conditions: read-out: IZ
[35] = test system: Klebsiella pneumoniae; experiment: Antibacterial activity against Klebsiella pneumoniae assessed as zone of inhibition at 250 ug/ml by agar well diffusion assay; assay type: functional; conditions: read-out: IZ
[36] = test system: Pseudomonas aeruginosa; experiment: Antibacterial activity against Pseudomonas aeruginosa […] assessed as bacterial growth inhibition measured after 18 to 24 hrs inhibition by broth microdilution assay; assay type: functional; conditions: time 18-24 hrs
[37] = test system: Staphylococcus aureus; experiment: Antibacterial activity against Staphylococcus aureus AUMC B-73 assessed as bacterial growth inhibition by agar cup diffusion method; assay type: functional
[38] = test system: Klebsiella pneumoniae; experiment: Antibacterial activity against Klebsiella pneumoniae AUMC B-77 assessed as bacterial growth inhibition by agar cup diffusion method; assay type: functional
[39] = test system: Klebsiella pneumoniae; experiment: Antibacterial activity against Klebsiella pneumoniae assessed as bacterial growth inhibition by broth microdilution assay; assay type: functional
[40] = test system: Staphylococcus aureus; experiment: Antibacterial activity against Staphylococcus aureus assessed as bacterial growth inhibition measured after 20 hrs by serial dilution method; assay type: functional
[41] = test system: Staphylococcus aureus; experiment: Antibacterial activity against Staphylococcus aureus MTCC 737 assessed as bacterial growth inhibition measured after 24 hrs by microdilution assay; assay type: functional
[42] = test system: Staphylococcus aureus; experiment: Antibacterial activity against methicillin resistant Staphylococcus aureus assessed as bacterial growth inhibition by agar cup diffusion assay; assay type: functional
[43] = test system: Staphylococcus aureus; experiment: Antibacterial activity against methicillin resistant Staphylococcus aureus ATCC 12493 assessed as bacterial growth inhibition by broth microdilution assay; assay type: functional
[44] = test system: Escherichia coli; experiment: Antibacterial activity against Escherichia coli assessed as bacterial growth inhibition by agar cup diffusion assay; assay type: functional
[45] = test system: Escherichia coli; experiment: Antibacterial activity against Escherichia coli assessed as bacterial growth inhibition by agar well diffusion assay; assay type: functional, organism-based
[46] = test system: Pseudomonas aeruginosa; experiment: Antibacterial activity against Pseudomonas aeruginosa assessed as bacterial growth inhibition measured after 20 hrs by serial dilution method; assay type: functional
[47] = test system: Mycobacterium tuberculosis; experiment: Antimycobacterial activity against multidrug Mycobacterium tuberculosis assessed as bacterial growth inhibition by LJ slant assay; assay type: functional
[48] = test system: Staphylococcus aureus; experiment: Antibacterial activity against Staphylococcus aureus assessed as bacterial growth inhibition by broth microdilution assay; assay type: functional
[49] = test system: Staphylococcus aureus; experiment: Potency index, ratio of ciprofloxacin MIC to test compound MIC for antibacterial activity against Staphylococcus aureus assessed as bacterial growth inhibition by broth microdilution assay; assay type: functional
[50] = test system: Escherichia coli; experiment: Antibacterial activity against Escherichia coli assessed as bacterial growth inhibition measured after 24 hrs by agar cup diffusion assay; assay type: functional
[51] = test system: Pseudomonas aeruginosa; experiment: Antibacterial activity against Pseudomonas aeruginosa assessed as bacterial growth inhibition measured after 24 hrs by agar cup diffusion assay; assay type: functional
[52] = test system: Staphylococcus aureus; experiment: Potency index, ratio of ciprofloxacin MIC to test compound MIC for antimicrobial activity against Staphylococcus aureus assessed as bacterial growth inhibition measured after 24 hrs by agar cup diffusion assay; assay type: functional

In the case of O=C(O)c1cn(C2CC2)c2cc(N3CCNCC3)c(F)cc2c1=O [CIPROFLOXACIN], the MIC [1] is reported as no less than 2 µg/mL, the MIC [2] is reported as 0.78 µg/mL (≈ 2.35 µM) and the MIC [3] is reported as 0.004 µg/mL (≈ 0.0121 µM). For the same compound, the MIC [4] was 1.9 µg/mL (≈ 5.73 µM), the MIC [5] was 0.5 µg/mL (≈ 1.51 µM) and the zone of inhibition at 50000 µg/mL [6] was 30 mm. The MIC [7] was 0.195 µg/mL (≈ 0.589 µM), the zone of inhibition at 50000 µg/mL [8] was 26.3 mm and the MIC [9] was no less than 2 µg/mL. It also gave an MIC [10] of 4.68 µg/mL (≈ 14.1 µM), an MIC [11] of 0.72 µg/mL (≈ 2.17 µM) and a zone of inhibition at 250 µg/mL [12] of 17 mm. For the same compound, the zone of inhibition at 50000 µg/mL [13] was 11 mm, the MIC [14] was 4 µg/mL (≈ 12.1 µM) and the MIC [15] was 3.25 µg/mL (≈ 9.81 µM). For the same compound, the zone of inhibition at 50000 µg/mL [16] was 13 mm, the IC50 [17] was 17.5 µM and the MIC [17] was 1.06 µg/mL (≈ 3.2 µM). It also gave an MIC [18] of 11.2 µg/mL (≈ 34 µM), an MIC [19] of no more than 0.03 µg/mL and an MIC [20] of 0.312 µg/mL (≈ 0.942 µM). For the same compound, the MIC [21] was 0.24 µg/mL (≈ 0.724 µM), the zone of inhibition at 50000 µg/mL [22] was 33 mm and the MIC [23] was 0.5 µg/mL. For the same compound, the MIC [24] was 4.68 µg/mL (≈ 14.1 µM), the zone of inhibition at 50000 µg/mL [25] was 33 mm and the IC50 [26] was 17.5 µM. It also gave an MIC [26] of 1.06 µg/mL (≈ 3.2 µM), an MIC [27] of 0.312 µg/mL (≈ 0.942 µM) and an MIC [28] of 8.62 µg/mL (≈ 26 µM). The zone of inhibition at 50000 µg/mL [29] was 30 mm, the MIC [30] was 0.312 µg/mL (≈ 0.942 µM) and the MIC [31] was 0.72 µg/mL (≈ 2.17 µM). For the same compound, the MIC [32] was no more than 0.03 µg/mL, the MIC [33] was 0.24 µg/mL (≈ 0.724 µM) and the zone of inhibition at 250 µg/mL [34] was 17 mm. The zone of inhibition at 250 µg/mL [35] was 17 mm, the MIC [36] was no more than 0.03 µg/mL and the MIC [37] was 1.6 µg/mL (≈ 4.83 µM). It also gave an MIC [38] of 3.6 µg/mL (≈ 10.9 µM), an MIC [39] of 0.004 µg/mL (≈ 0.0121 µM) and an MIC [40] of 0.24 µg/mL (≈ 0.724 µM). For the same compound, the MIC [41] was 4.68 µg/mL (≈ 14.1 µM), the MIC [42] was 5.49 µg/mL (≈ 16.6 µM) and the MIC [43] was 0.49 µg/mL (≈ 1.48 µM). For the same compound, the MIC [44] was 1.9 µg/mL (≈ 5.73 µM), the IC50 [45] was 17.5 µM and the MIC [45] was 1.06 µg/mL (≈ 3.2 µM). The MIC [46] was 0.24 µg/mL (≈ 0.724 µM) and the MIC [47] was no less than 2 µg/mL.
In the case of O=C(CN1CCN(c2cc3c(cc2F)c(=O)c(C(=O)O)cn3C2CC2)CC1)N/N=C/C=C/c1c(F)cccc1F, the MIC [48] is reported as no more than 0.125 µg/mL and the Ratio [49] is reported as “>=4”.
Work on O=C(/C=C/c1cccc(Cl)c1)c1ccc(NC(=O)N2CCN(c3cc4c(cc3F)c(=O)c(C(=O)O)cn4C3CC3)CC2)cc1 yielded an MIC [50] of 0.06 µg/mL (≈ 0.0976 µM), an MIC [51] of 0.06 µg/mL (≈ 0.0976 µM) and an MIC [15] of 0.06 µg/mL (≈ 0.0976 µM). It also gave a Ratio [52] of 54.
